Results taken from patent US10828317B2, “Method of treating bacterial infections” (priority 2016, dated 2020).
Like-named read-outs stand apart in the source and are kept apart here.

Experiments:
M. luteus EN0455 = assay: MIC; type: cell-based, Micrococcus luteus; details: Micrococcus luteus, read-out: MIC
E. coli EN003 = assay: microbe, parasite or virus in culture; type: cell-based, Escherichia coli; details: Escherichia coli, EN003, combination didanosine+trimethoprim+uridine, Table 10
S. flexneri APV00907 = assay: MIC and antibiogram; type: cell-based; details: Shigella flexneri, Table 22A
From the text: Inhibition of Heliobacter is important in view of increasing resistance and its association to gastric cancer.

P. aeruginosa EN0422 = assay: MIC; type: cell-based, Pseudomonas aeruginosa; details: Pseudomonas aeruginosa, read-out: MIC
S. epidermidis EN0456 = assay: MIC; type: cell-based, Staphylococcus epidermidis; details: Staphylococcus epidermidis, read-out: MIC
E. coli EN001 = assay: MIC, WT (EN001 = EN0001, ATCC 25922); type: cell-based, Escherichia coli
E. coli EN0137 = assay: MIC, ESBL (CTX-M-15); type: cell-based; details: Escherichia coli, read-out: MIC
P. aeruginosa EN004 = assay: MIC, WT (EN004 = EN0004); type: cell-based, Pseudomonas aeruginosa
[1] = tested on: A. pittii or A. nosocomialis EN0180; assay: MIC; type: cell-based, Acinetobacter pittii or nosocomialis; details: read-out: MIC
P. mirabilis ST19 EN0445 = assay: MIC; type: cell-based, Proteus mirabilis; details: Proteus mirabilis, read-out: MIC
P. aeruginosa EN014 = assay: MIC, WT; type: cell-based, Pseudomonas aeruginosa; details: Pseudomonas aeruginosa, read-out: MIC
E. coli EN002 = assay: MIC, DtoIC; type: cell-based, Escherichia coli; details: Escherichia coli, read-out: MIC
E. coli EN012 = assay: MIC, WT; type: cell-based, Escherichia coli; details: Escherichia coli, EN012, combination FdUrd+trimethoprim+uridine, Table 8; read-out: MIC
S. sonnei APV00908 = assay: MIC and antibiogram; type: cell-based; details: Shigella sonnei, Table 22A
K. pneumoniae EN0463 = assay: MIC; type: cell-based, Klebsiella pneumoniae; details: Klebsiella pneumoniae, read-out: MIC
Citrobacter sp. EN0465 = assay: MIC; type: cell-based; details: Citrobacter, read-out: MIC
K. pneumoniae EN006 = assay: MIC, WT (EN006 = EN0006, ATCC 13883); type: cell-based, Klebsiella pneumoniae; details: Klebsiella pneumoniae, read-out: MIC
[2] = combination FdUrd+trimethoprim+uridine, Table 19
[3] = combination didanosine+trimethoprim+uridine, Table 20

COc1cc(Cc2cnc(N)nc2N)cc(OC)c1OC [Trimethoprim, trimethoprim]
MIC (M. luteus EN0455; EN0455, Combination 1 AZT+trimethoprim+uridine, Table 16): 2 µg/mL
MIC (M. luteus EN0455; EN0455, Combination 2 AZT+trimethoprim+uridine+thymidine, Table 16): > 4 µg/mL
MIC (M. luteus EN0455; EN0455, combination AZT+trimethoprim+uridine, Table 6): 2 µg/mL
MIC (M. luteus EN0455; EN0455, combination FdUrd+trimethoprim+uridine, Table 8): 4 µg/mL
MIC (M. luteus EN0455; EN0455, combination didanosine+trimethoprim+uridine, Table 10): 4 µg/mL
MIC (E. coli EN003): 0.064 µg/mL
MIC (S. flexneri APV00907; APV00907, combination AZT+trimethoprim+uridine): 2 µg/mL
MIC (S. flexneri APV00907; APV00907, combination FdUrd+trimethoprim+uridine): > 8 µg/mL
MIC (P. aeruginosa EN0422; EN0422, Combination 1 AZT+trimethoprim+uridine, Table 16): > 8 µg/mL
MIC (P. aeruginosa EN0422; EN0422, Combination 2 AZT+trimethoprim+uridine+thymidine, Table 16): > 4 µg/mL
MIC (P. aeruginosa EN0422; EN0422, combination AZT+trimethoprim+uridine, Table 6): > 4 µg/mL
MIC (P. aeruginosa EN0422; EN0422, combination FdUrd+trimethoprim+uridine, Table 8): > 8 µg/mL
MIC (P. aeruginosa EN0422; EN0422, combination didanosine+trimethoprim+uridine, Table 10): > 8 µg/mL
MIC (S. epidermidis EN0456; EN0456, Combination 1 AZT+trimethoprim+uridine, Table 16): 0.064 µg/mL
MIC (S. epidermidis EN0456; EN0456, Combination 2 AZT+trimethoprim+uridine+thymidine, Table 16): 2 µg/mL
MIC (S. epidermidis EN0456; EN0456, combination AZT+trimethoprim+uridine, Table 6): 0.06 µg/mL
MIC (S. epidermidis EN0456; EN0456, combination FdUrd+trimethoprim+uridine, Table 8): < 0.016 µg/mL
MIC (E. coli EN001; Escherichia coli, EN001, Combination 1 AZT+trimethoprim+uridine, Table 16, read-out: MIC): 0.064 µg/mL
MIC (E. coli EN001; Escherichia coli, EN001, combination FdUrd+trimethoprim+uridine, Table 8, read-out: MIC): 0.25 µg/mL
MIC (E. coli EN001; Escherichia coli, EN001, combination didanosine+trimethoprim+uridine, Table 10, read-out: MIC): 0.25 µg/mL
MIC (E. coli EN001; [2]): 0.5 µg/mL
MIC (E. coli EN001; [3]): 0.5 µg/mL
MIC (E. coli EN0137; EN0137, combination FdUrd+trimethoprim+uridine, Table 19): > 8 µg/mL
MIC (E. coli EN0137; EN0137, combination didanosine+trimethoprim+uridine, Table 20): > 8 µg/mL
MIC (P. aeruginosa EN004; Pseudomonas aeruginosa, EN004, Combination 1 AZT+trimethoprim+uridine, Table 16, read-out: MIC): > 4 µg/mL
MIC (P. aeruginosa EN004; Pseudomonas aeruginosa, EN004, Combination 2 AZT+trimethoprim+uridine+thymidine, Table 16, read-out: MIC): > 4 µg/mL
MIC (P. aeruginosa EN004; Pseudomonas aeruginosa, EN004, combination AZT+trimethoprim+uridine, Table 6, read-out: MIC): > 4 µg/mL
MIC (P. aeruginosa EN004; Pseudomonas aeruginosa, EN004, combination FdUrd+trimethoprim+uridine, Table 8, read-out: MIC): > 8 µg/mL
MIC (P. aeruginosa EN004; Pseudomonas aeruginosa, EN004, combination didanosine+trimethoprim+uridine, Table 10, read-out: MIC): > 8 µg/mL
MIC (P. aeruginosa EN004; combination AZT+trimethoprim+uridine, Table 17B): >4 µg/mL
MIC (P. aeruginosa EN004; [2]): >8 µg/mL
MIC (P. aeruginosa EN004; [3]): >8 µg/mL
MIC ([1]; Combination 1 AZT+trimethoprim+uridine, Table 16): > 4 µg/mL
MIC ([1]; Combination 2 AZT+trimethoprim+uridine+thymidine, Table 16): > 4 µg/mL
MIC ([1]; combination AZT+trimethoprim+uridine, Table 6): > 4 µg/mL
MIC ([1]; combination FdUrd+trimethoprim+uridine, Table 8): 8 µg/mL
MIC ([1]; combination didanosine+trimethoprim+uridine, Table 10): > 8 µg/mL
MIC (P. mirabilis ST19 EN0445; ST19EN0445, Combination 1 AZT+trimethoprim+uridine, Table 16): 1 µg/mL
MIC (P. mirabilis ST19 EN0445; ST19EN0445, Combination 2 AZT+trimethoprim+uridine+thymidine, Table 16): > 4 µg/mL
MIC (P. mirabilis ST19 EN0445; ST19EN0445, combination AZT+trimethoprim+uridine, Table 6): > 4 µg/mL
MIC (P. mirabilis ST19 EN0445; ST19EN0445, combination FdUrd+trimethoprim+uridine, Table 8): 1 µg/mL
MIC (P. mirabilis ST19 EN0445; ST19EN0445, combination didanosine+trimethoprim+uridine, Table 10): 2 µg/mL
MIC (P. aeruginosa EN014; EN014, Combination 1 AZT+trimethoprim+uridine, Table 16): > 4 µg/mL
MIC (P. aeruginosa EN014; EN014, Combination 2 AZT+trimethoprim+uridine+thymidine, Table 16): > 4 µg/mL
MIC (P. aeruginosa EN014; EN014, combination AZT+trimethoprim+uridine, Table 6): > 4 µg/mL
MIC (P. aeruginosa EN014; EN014, combination FdUrd+trimethoprim+uridine, Table 8): > 8 µg/mL
MIC (P. aeruginosa EN014; EN014, combination didanosine+trimethoprim+uridine, Table 10): > 8 µg/mL
MIC (E. coli EN002; EN002, Combination 1 AZT+trimethoprim+uridine, Table 16): 0.016 µg/mL
MIC (E. coli EN002; EN002, combination AZT+trimethoprim+uridine, Table 6): 0.016 µg/mL
MIC (E. coli EN002; EN002, combination FdUrd+trimethoprim+uridine, Table 8): 0.064 µg/mL
MIC (E. coli EN002; EN002, combination didanosine+trimethoprim+uridine, Table 10): 0.064 µg/mL
MIC (E. coli EN012): 0.064 µg/mL
MIC (S. sonnei APV00908; APV00908, combination AZT+trimethoprim+uridine): 0.03 µg/mL
MIC (S. sonnei APV00908; APV00908, combination FdUrd+trimethoprim+uridine): > 8 µg/mL
MIC (K. pneumoniae EN0463; EN0463, combination AZT+trimethoprim+uridine, Table 6): 0.06 µg/mL
MIC (K. pneumoniae EN0463; EN0463, combination FdUrd+trimethoprim+uridine, Table 8): 0.5 µg/mL
MIC (K. pneumoniae EN0463; EN0463, combination didanosine+trimethoprim+uridine, Table 10): 0.5 µg/mL
MIC (Citrobacter sp. EN0465; SP.EN0465, Combination 1 AZT+trimethoprim+uridine, Table 16): > 4 µg/mL
MIC (Citrobacter sp. EN0465; SP.EN0465, Combination 2 AZT+trimethoprim+uridine+thymidine, Table 16): > 4 µg/mL
MIC (Citrobacter sp. EN0465; SP.EN0465, combination AZT+trimethoprim+uridine, Table 6): > 4 µg/mL
MIC (Citrobacter sp. EN0465; SP.EN0465, combination FdUrd+trimethoprim+uridine, Table 8): > 8 µg/mL
MIC (Citrobacter sp. EN0465; SP.EN0465, combination didanosine+trimethoprim+uridine, Table 10): > 8 µg/mL
MIC (K. pneumoniae EN006; EN006, Combination 2 AZT+trimethoprim+uridine+thymidine, Table 16): 0.5 µg/mL
MIC (K. pneumoniae EN006; EN006, combination AZT+trimethoprim+uridine, Table 6): 0.06 µg/mL
